From publication PMC11949107, “Polyunsaturated fatty acids and their endocannabinoid-related metabolites activity at human TRPV1 and TRPA1 ion channels expressed in HEK-293 cells” (PeerJ, 2025)
Values joined by “and” are separate entries in the source; they are usually repeats but may differ in a detail not shown here. Equal entries are not always repeated.

Key:
human TRPV1 = target: T1, human TRPV1 (Homo sapiens, UniProt Q8NER1); assay: Calcium 5 dye [Ca]i assay in HEK-293 Flp-In T-REx cells expressing TRPV1 (agonist response); assay type: cell-based; settings: for Change in Ca5 fluorescence, individual experiments (CRC raw data): TRPV1 cells
T1 construct: Life Technologies (cells); host or cells: Flp-In T-REx HEK-293
Protocol: (§1) The cells were incubated in a 5% CO2 humidified atmosphere at 37 °C. Upon reaching approximately 90% confluence in 75 cm^2 flasks, they were trypsinized and transferred to poly-D-lysine coated 96-well plates (Corning, Castle Hill, NSW, Australia) in L-15 medium supplemented with 1% FBS, 100 U penicillin and 100 µg streptomycin ml^−1 (1% P/S), and 15 mM glucose (80 µL volume per well). After an overnight incubation (maximum of 16 h) in humidified room air at 37 °C, TRPV1 and TRPA1 receptor expression was induced 4 h before experimentation by adding to each well 10 µL tetracycline solution to a final concentration of 1 µg ml^−1.
(§2) Intracellular calcium [Ca]i levels were assessed using the calcium 5 kit from Molecular Devices (# R8186, Sunnyvale, CA, USA) on a FlexStation 3 Microplate Reader (Molecular Devices, Sunnyvale, CA, USA). […] Probenecid (cat # 50027; Biotium) which helps to prevent expulsion of calcium indicator from the cells was added to a final concentration of 1.25 mM. 90 µL of the dye were loaded into each well of the plate and incubated for 1 h before reading in the FlexStation 3 at 37 °C. Fluorescence was recorded every 2 s (λ excitation = 485 nm, λ emission = 525 nm) for 5 min. After 1 min of baseline recording, 20 µL of the drug, dissolved in HBSS with 1% dimethyl sulfoxide (DMSO) (cat # D2650; Sigma-Aldrich, Melbourne, Australia) was added (final DMSO concentration was 0.1% in well).
(§3) The response to agonists was expressed as a percentage change from the average baseline measurement taken for 60s before adding drug. Changes in fluorescence resulting from the addition of solvent were subtracted before normalization to baseline. Concentration–response curves (CRC), Emax and EC50 values were determined using a three-parameter logistic equation (GraphPad Prism, San Diego, CA, USA). […] Potencies were expressed as pEC50, which is the negative log of EC50 in moles per litre (Molar). Where appropriate, unpaired Student’s t-test were used to compare the responses of individual compounds in different conditions, while a one-way ANOVA followed by Dunnett’s multiple comparisons test was used to assess potential differences in responses elicited by a range of compounds. P < 0.05 was considered statistically significant.

human TRPA1 = target: T2, human TRPA1 (Homo sapiens, UniProt O75762); assay: Calcium 5 dye [Ca]i assay in HEK-293 Flp-In T-REx cells expressing TRPA1 (agonist response); assay type: cell-based; settings: for Elevation of [Ca]i in HEK-293 TRPA1 cells compared with HEK-293 EV cells: 10 µM (cinnamaldehyde 300 µM)
T2 construct: Life Technologies (cells); host or cells: Flp-In T-REx HEK-293
Protocol: as §1, §2, §3

HEK-293 EV cells = assay: Calcium 5 dye [Ca]i assay in HEK-293 empty vector (EV) cells; assay type: cell-based, human
Protocol: as §1
Intracellular calcium [Ca]i levels were assessed using the calcium 5 kit from Molecular Devices (# R8186, Sunnyvale, CA, USA) on a FlexStation 3 Microplate Reader (Molecular Devices, Sunnyvale, CA, USA). […] 90 µL of the dye were loaded into each well of the plate and incubated for 1 h before reading in the FlexStation 3 at 37 °C. […] After 1 min of baseline recording, 20 µL of the drug, dissolved in HBSS with 1% dimethyl sulfoxide (DMSO) (cat # D2650; Sigma-Aldrich, Melbourne, Australia) was added (final DMSO concentration was 0.1% in well).
as §3

T1 sequence (Q8NER1 whole entry): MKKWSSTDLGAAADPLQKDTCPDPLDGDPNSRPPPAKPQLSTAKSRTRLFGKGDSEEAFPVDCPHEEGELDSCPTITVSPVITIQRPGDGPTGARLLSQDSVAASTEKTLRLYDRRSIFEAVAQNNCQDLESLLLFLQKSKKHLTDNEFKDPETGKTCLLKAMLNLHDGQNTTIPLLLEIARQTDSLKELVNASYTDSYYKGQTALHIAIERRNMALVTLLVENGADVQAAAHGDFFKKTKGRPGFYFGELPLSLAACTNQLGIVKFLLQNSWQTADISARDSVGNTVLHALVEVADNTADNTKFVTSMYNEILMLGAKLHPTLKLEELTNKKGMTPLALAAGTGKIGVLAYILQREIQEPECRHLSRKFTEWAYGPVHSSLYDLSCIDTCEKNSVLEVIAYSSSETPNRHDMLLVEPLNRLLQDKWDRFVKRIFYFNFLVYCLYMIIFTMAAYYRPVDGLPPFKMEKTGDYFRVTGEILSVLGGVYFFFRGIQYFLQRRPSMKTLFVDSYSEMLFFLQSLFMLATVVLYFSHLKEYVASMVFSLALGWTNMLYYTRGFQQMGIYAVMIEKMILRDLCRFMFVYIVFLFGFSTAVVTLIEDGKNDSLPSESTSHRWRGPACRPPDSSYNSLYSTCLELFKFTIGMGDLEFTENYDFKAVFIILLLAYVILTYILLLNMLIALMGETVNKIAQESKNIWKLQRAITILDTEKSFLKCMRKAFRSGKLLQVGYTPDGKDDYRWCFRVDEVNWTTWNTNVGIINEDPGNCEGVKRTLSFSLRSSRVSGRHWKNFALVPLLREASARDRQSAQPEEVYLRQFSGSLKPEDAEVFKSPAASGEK
T2 sequence (O75762 whole entry): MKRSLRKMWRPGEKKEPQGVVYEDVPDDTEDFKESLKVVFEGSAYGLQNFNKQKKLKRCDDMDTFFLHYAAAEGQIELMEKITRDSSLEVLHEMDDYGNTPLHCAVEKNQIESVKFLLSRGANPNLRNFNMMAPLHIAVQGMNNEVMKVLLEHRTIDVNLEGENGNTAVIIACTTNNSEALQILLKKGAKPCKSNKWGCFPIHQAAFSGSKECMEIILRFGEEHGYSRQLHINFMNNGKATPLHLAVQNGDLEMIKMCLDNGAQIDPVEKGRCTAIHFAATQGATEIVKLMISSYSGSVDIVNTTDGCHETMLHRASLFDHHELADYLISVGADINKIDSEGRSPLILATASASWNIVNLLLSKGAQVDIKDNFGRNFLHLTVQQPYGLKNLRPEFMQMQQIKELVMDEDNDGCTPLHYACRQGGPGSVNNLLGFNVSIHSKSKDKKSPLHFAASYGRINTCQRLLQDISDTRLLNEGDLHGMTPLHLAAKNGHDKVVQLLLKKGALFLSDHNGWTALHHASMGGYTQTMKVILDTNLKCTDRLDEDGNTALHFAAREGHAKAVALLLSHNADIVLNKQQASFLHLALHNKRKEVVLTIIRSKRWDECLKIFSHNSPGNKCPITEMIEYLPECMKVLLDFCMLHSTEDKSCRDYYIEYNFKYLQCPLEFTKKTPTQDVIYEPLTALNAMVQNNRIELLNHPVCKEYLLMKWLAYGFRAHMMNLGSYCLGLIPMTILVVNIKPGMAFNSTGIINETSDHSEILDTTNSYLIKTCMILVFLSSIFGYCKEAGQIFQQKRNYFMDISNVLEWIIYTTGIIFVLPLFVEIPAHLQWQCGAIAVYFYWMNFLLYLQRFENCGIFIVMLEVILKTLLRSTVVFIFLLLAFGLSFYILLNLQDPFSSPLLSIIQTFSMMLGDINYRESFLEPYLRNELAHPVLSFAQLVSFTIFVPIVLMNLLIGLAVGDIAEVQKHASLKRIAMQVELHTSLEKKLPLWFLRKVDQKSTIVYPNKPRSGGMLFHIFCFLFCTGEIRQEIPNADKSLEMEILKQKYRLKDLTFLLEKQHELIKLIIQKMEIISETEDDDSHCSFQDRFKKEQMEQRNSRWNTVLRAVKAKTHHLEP

For `CCCCC/C=C\C/C=C\C/C=C\C/C=C\CCCCOC(CO)CO` [2-AG ether, 2-arachidonoylglycerol ether], the “Elevation of [Ca]i in HEK-293 TRPV1 cells compared with HEK-293 EV cells” value (human TRPV1; 10 µM) was “did not produce a notable change”, the “Change of Ca5 fluorescence, Mean ± SEM, TRPV1 (10 µM)” value (human TRPV1; 10 µM, HEK-293 TRPV1 cells, percentage of predrug baseline) was 39 ± 24% and the “TRPV1 response, Mean± SEM (N)” value (human TRPV1; 30 µM, one-way ANOVA comparison with capsaicin 10 µM) was 63± 56. For the same molecule, the “Emax ± SEM % TRPV1 (30 µM)” value (human TRPV1; highest tested concentration (30 µM) or derived from concentration-response curves (DHEA, AEA, NADA, capsaicin)) was 63 ± 23%, the “Change in Ca5 fluorescence, individual experiments (CRC raw data)” value (“Change in Ca5 fluorescence” below) (human TRPV1; log concentration -4.52288 (M)) was 153.653 and 87.759 and 41.6511 and 12.8054 and 5.8133 and 75.505 and the “Change in Ca5 fluorescence” value (human TRPV1; log concentration -5 (M)) was 155.318 and 30.8581 and 23.9661 and 3.174 and 0.3103 and 20.3939. For the same molecule, the “Change in Ca5 fluorescence” value (human TRPV1; log concentration -5.52288 (M)) was 16.5791 and 3.033 and 7.578 and 1.888 and 0.6433 and 11.7313, the “Change in Ca5 fluorescence” value (human TRPV1; log concentration -6 (M)) was 7.918 and 3.6522 and 9.605 and 2.557 and 2.906 and 1.314 and the “Change in Ca5 fluorescence” value (human TRPV1; log concentration -6.52288 (M)) was 3.121 and 1.724 and 12.4457 and 2.326 and 0.7415 and 2.165. The “Change in Ca5 fluorescence” value (human TRPV1; log concentration -7 (M)) was 2.256 and 4.13 and 8.499 and 1.026 and 2.717 and 1.813, the “Elevation of [Ca]i in HEK-293 TRPA1 cells compared with HEK-293 EV cells” value (human TRPA1) was “did not produce a change” and the “Change of Ca5 fluorescence, Mean ± SEM, TRPA1 (10 µM)” value (human TRPA1; 10 µM, HEK-293 TRPA1 cells, percentage of predrug baseline) was 91 ± 40%. The “TRPA1 activation at the highest concentration tested” value (human TRPA1; 30 µM) was “activated TRPA1”, the “TRPA1 response compared with the highest concentration of cinnamaldehyde (300 µM)” value (human TRPA1; 30 µM) was “significantly smaller” and the “TRPA1 response, Mean± SEM (N)” value (human TRPA1; 30 µM, one-way ANOVA comparison with cinnamaldehyde 300 µM) was 223 ± 60. For the same molecule, the “[Ca]i response (change in fluorescence), individual replicates” value (“[Ca]i response (change in fluorescence)” below) (human TRPA1; concentration -4.52288 (log), sheet Figure 3(E)) was 16.8824 and 397.614 and 5.373 and 104.863 and 520.454 and 293.014, the “[Ca]i response (change in fluorescence)” value (human TRPA1; concentration -5 (log), sheet Figure 3(E)) was 6.439 and 205.99 and 4.156 and 6.3216 and 170.328 and 155.005 and the “[Ca]i response (change in fluorescence)” value (human TRPA1; concentration -5.52288 (log), sheet Figure 3(E)) was 2.263 and 3.295 and 6.759 and 5.886 and 11.1841 and 49.3437. The “[Ca]i response (change in fluorescence)” value (human TRPA1; concentration -6 (log), sheet Figure 3(E)) was 11.4488 and 1.879 and 1.228 and 4.253 and 4.557 and 3.684, the “[Ca]i response (change in fluorescence)” value (human TRPA1; concentration -6.52288 (log), sheet Figure 3(E)) was 9.48 and 8.5131 and 4.1 and 4.971 and 4.357 and 3.125 and the “[Ca]i response (change in fluorescence)” value (human TRPA1; concentration -7 (log), sheet Figure 3(E)) was 0.2809 and 4.873 and 5.959 and 5.37 and 6.745 and 2.857. For the same molecule, the “Emax ± SEM % TRPA1 (30 µM)” value (human TRPA1; highest tested concentration (30 µM) or derived from concentration-response curves (cinnamaldehyde)) was 223 ± 87% and the “Change of Ca5 fluorescence, Mean ± SEM, EV (10 µM)” value (HEK-293 EV cells; 10 µM, HEK-293 EV cells, percentage of predrug baseline) was 8 ± 2%.

`O=C/C=C/c1ccccc1` [Cinnamaldehyde, reference compound] was tested, and the “Elevation of [Ca]i in HEK-293 TRPA1 cells compared with HEK-293 EV cells” value (human TRPA1) was “significantly greater”, the Emax at 30 µM (human TRPA1; HEK293, read-out: Emax ± SEM % TRPA1 (30 µM)) was 503 ± 23% and the EC50 (human TRPA1; HEK-293 TRPA1 cells, EC50 in molar, read-out: pEC50 ± SEM TRPA1 (converted)) was 39.8 µM. For the same molecule, the “[Ca]i response (change in fluorescence)” value (human TRPA1; concentration -3 (log), sheet Figure 3(E), listed as CA) was 406.777 and 372.997 and 396.442 and 391.125 and 560.24 and 475.841 and 620.741 and 568.711 and 690.623 and 560.219 and 348.734, the “[Ca]i response (change in fluorescence)” value (human TRPA1; concentration -3.52288 (log), sheet Figure 3(E), listed as CA) was 399.171 and 292.37 and 420 and 326.195 and 503.571 and 407.047 and 570.074 and 544.405 and 658.472 and 579.18 and 509.178 and 443.895 and 251.795 and the “[Ca]i response (change in fluorescence)” value (human TRPA1; concentration -4 (log), sheet Figure 3(E), listed as CA) was 465.941 and 242.855 and 408.124 and 299.959 and 422.86 and 556.178 and 443.235 and 598.589 and 512.677 and 412.651 and 386.358 and 8.272. The “[Ca]i response (change in fluorescence)” value (human TRPA1; concentration -4.52288 (log), sheet Figure 4, listed as CA) was 54.0853 and 24.6638 and 241.325, the “[Ca]i response (change in fluorescence)” value (human TRPA1; concentration -6 (log), sheet Figure 3(E), listed as CA) was 0.7258 and 2.113 and 6.067 and 2.682 and 1.675 and 5.148 and 1.916 and 4.62 and 6.922 and 6.788 and 9.2435 and the “[Ca]i response (change in fluorescence)” value (human TRPA1; concentration -6.52288 (log), sheet Figure 3(E), listed as CA) was 2.403 and 2.775 and 5.3494 and 3.66 and 4.992 and 6.537 and 3.841 and 13.1494 and 4.894 and 10.2884 and 14.1967 and 10.211 and 1.152 and 9.578. The “TRPA1 response, Mean± SEM (N)” value (human TRPA1; highest concentration of cinnamaldehyde (300 µM)) was 461 ± 60 (14) and the “Change of Ca5 fluorescence, Mean ± SEM, EV” value (HEK-293 EV cells; 300 µM) was 9 ± 6%.
